Data as given in PMC4793717 (Pharmacology, 2013).
Entries after “also recorded” stand apart in the source; their conditions may differ. Like-named read-outs stand apart in the source and are kept apart here. One block for each molecule: values may come before it.

Legend:
[1] = tested on: Caco-2; assay: In vitro Caco-2 permeability assay; type: in vitro ADME; details: test conc. 10 μmol/l, 2 h
[2] = In vitro Caco-2 permeability assay; type: in vitro ADME; details: human, Caco-2
[3] = tested on: TrkB receptor; details: cited from earlier work
[4] = target: T1, TrkB (Mus musculus, UniProt P15209); assay: TrkB activation in mouse brain after oral gavage; type: in vivo, C57BL/6J mice; details: 5 mg/kg oral gavage, brain collected at 2 h
T1 sequence (P15209 32-821): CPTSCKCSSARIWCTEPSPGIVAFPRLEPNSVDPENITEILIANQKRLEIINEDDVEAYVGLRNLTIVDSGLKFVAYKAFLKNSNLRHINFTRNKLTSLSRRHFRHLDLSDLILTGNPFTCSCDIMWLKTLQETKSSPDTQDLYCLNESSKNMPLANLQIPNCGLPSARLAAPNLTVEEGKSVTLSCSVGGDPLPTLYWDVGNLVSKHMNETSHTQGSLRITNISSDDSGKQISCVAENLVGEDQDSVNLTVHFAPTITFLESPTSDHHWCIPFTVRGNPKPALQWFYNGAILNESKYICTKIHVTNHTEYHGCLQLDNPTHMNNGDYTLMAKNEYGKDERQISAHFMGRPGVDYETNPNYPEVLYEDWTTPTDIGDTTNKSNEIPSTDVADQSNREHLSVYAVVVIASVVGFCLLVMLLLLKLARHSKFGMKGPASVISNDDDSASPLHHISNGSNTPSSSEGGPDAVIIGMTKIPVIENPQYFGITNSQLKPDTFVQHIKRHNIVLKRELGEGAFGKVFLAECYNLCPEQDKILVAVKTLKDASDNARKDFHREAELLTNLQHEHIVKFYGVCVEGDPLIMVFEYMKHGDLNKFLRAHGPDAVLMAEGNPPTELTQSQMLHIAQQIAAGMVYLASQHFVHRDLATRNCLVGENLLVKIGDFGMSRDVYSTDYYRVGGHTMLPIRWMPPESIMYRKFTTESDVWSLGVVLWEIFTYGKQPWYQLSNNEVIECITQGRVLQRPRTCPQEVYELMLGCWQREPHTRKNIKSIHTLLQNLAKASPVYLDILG

[5] = target: T2, TrkB receptor (Rattus norvegicus, UniProt Q63604); assay: TrkB activation in primary cortical neurons; type: cell-based; details: for TrkB activation in primary neurons (p-TrkB Y816): 500 nmol/l, 15 min, primary cortical neurons
T2 sequence (Q63604 32-821): as the sequence (P15209 32-821) above, with T3M, S9T, A10T, V32I, R63K, S84G, M153T, L185I, S394T, S770N counted along it

[6] = target: T1, TrkB; details: oral administration, at 2 or 4 h; cited from earlier work
[7] = tested on: Akt; assay: p-Akt ELISA of mouse brain samples; type: in vivo, C57BL/6J mice; details: for p-Akt versus control in entacapone-treated and tolcapone-treated groups (ELISA): COMT inhibitor 30 mg/kg pretreatment, flavonoid 5 mg/kg
[8] = tested on: mice; details: cited from earlier work
[9] = target: T1, TrkB; assay: Immunohistochemistry staining of p-TrkB in the dentate gyrus; type: in vivo, mice; details: 5 mg/kg orally for 21 days
[10] = tested on: dentate gyrus; assay: Neurogenesis assay via BrdU incorporation in the dentate gyrus; type: in vivo, C57BL/6J mice; details: 5 mg/kg orally for 21 days
[11] = tested on: mice; assay: Forced swim test; type: in vivo, C57BL/6J mice; details: 5 mg/kg orally once a day for 21 days
[12] = tested on: mice; assay: Tail suspension test; type: in vivo, C57BL/6J mice; details: 5 mg/kg orally once a day for 21 days
[13] = In vivo pharmacokinetic study of 7,8-DHF, plasma and brain by HPLC-MS/MS; design: species or system CD-1 mice; details: for half-life: T1/2, plasma
[14] = chronic treatment, dose of 5 mg/kg; cited from earlier work
[15] = tested on: dentate gyrus; details: chronic treatment; cited from earlier work
[16] = target: T2, TrkB receptor; details: cited from earlier work
[17] = male, CD-1, mouse, plasma, po, 50 mg/kg, mice, after 7,8-DHF p.o. 50 mg/kg
[18] = mice, after 7,8-DHF p.o. 50 mg/kg
[19] = male, CD-1, mouse, plasma, po, 50 mg/kg

Molecule: O=c1cc(-c2cccc(O)c2)oc2cc(O)c(O)cc12 [6,7,3′-trihydroxyflavone]
TrkB agonistic effect [3]: possess a TrkB agonistic effect

Molecule: O=c1cc(-c2ccccc2)oc2cc(O)c(O)cc12 [6,7-dihydroxyflavone]
TrkB agonistic effect [3]: possess a TrkB agonistic effect

Molecule: CN(C)c1ccc(-c2cc(=O)c3ccc(O)c(O)c3o2)cc1 [4′-DMA-7,8-DHF, 4′-dimethylamino-7,8-DHF]
TrkB activation in mouse brain (p-TrkB Y816) [4]: obviously activated TrkB compared to vehicle control | TrkB activation in primary neurons (p-TrkB Y816) [5]: more robust TrkB agonistic activity than 7,8-DHF; also recorded: activated TrkB receptor signaling pathways in primary neurons | TrkB activation in mouse brain [6]: evidently activates the TrkB receptor in mouse brain | Akt activation in mouse brain (p-Akt ELISA) ([7]; 1 mg/kg oral, 2 h): potently activated Akt | p-Akt versus control in entacapone-treated and tolcapone-treated groups (ELISA) [7]: no significant changes | Comment (Caco-2 permeability) [1]: poor recovery A to B | Mean A→B Papp [1]: 0.9 10^−6 cm•s^−1 | Mean B→A Papp [1]: 3.1 10^−6 cm•s^−1 | Efflux ratio ([1]; >2 indicates significant efflux activity): 3.6 | immobility in FST ([8]; chronic treatment): robustly decreased the immobility in FST after chronic treatment

Molecule: CNC(=C[N+](=O)[O-])NCCSCc1ccc(CN(C)C)o1 [Ranitidine, reference compound]
Comment (Caco-2 permeability) [1]: low permeability, efflux | Papp A→B at 2 h, 10 μmol/l [2]: 0.3 ×10⁻⁶ cm/s | Papp B→A at 2 h, 10 μmol/l [2]: 2.9 ×10⁻⁶ cm/s | efflux ratio at 2 h, 10 μmol/l [2]: 10.9

Molecule: O=c1cc(-c2ccccc2)oc2cc(O)cc(O)c12 [5,7-dihydroxyflavone]
TrkB agonistic effect [3]: but not 5,6-dihydroxyflavone or 5,7-dihydroxyflavone possess a TrkB agonistic effect

Molecule: COc1ccc2c(=O)cc(-c3ccccc3)oc2c1OC [D024]
TrkB activation in mouse brain (p-TrkB Y816) [4]: elicited TrkB activation (p-TrkB Y816), but the effect was not as strong as that of the other two compounds | p-TrkB 706 immunoblotting in mouse brain [4]: elicited the strongest p-TrkB signal

Molecule: O=c1cc(-c2ccccc2)oc2ccc(O)c(O)c12 [5,6-dihydroxyflavone]
TrkB agonistic effect [3]: but not 5,6-dihydroxyflavone or 5,7-dihydroxyflavone possess a TrkB agonistic effect

The next lines start with results.

Comment (Caco-2 permeability) [1]: high permeability control | Papp A→B at 2 h, 10 μmol/l [2]: 52.6 ×10⁻⁶ cm/s | Papp B→A at 2 h, 10 μmol/l [2]: 18.3 ×10⁻⁶ cm/s | efflux ratio at 2 h, 10 μmol/l [2]: 0.3
Molecule: CC(=O)CC(c1ccccc1)c1c(O)c2ccccc2oc1=O (centres unmarked) [Warfarin, reference compound]

half-life [13, 17]: 1.53 h | earliest detection in plasma [13, 18]: 3 min | plasma concentration at 6 h [13, 18]: below the quantitative limit | detection in mouse brain at any time ([13]; mice, after 7,8-DHF p.o. 50 mg/kg, 50 mg/kg): below the limit of quantification
Molecule: COc1ccc2c(=O)cc(-c3ccccc3)oc2c1O [H428, 7-methoxy-8-hydroxyflavone]
TrkB activation in mouse brain (p-TrkB Y816) [4]: clearly activated the TrkB receptor compared to vehicle control | TrkB activation in primary neurons (p-TrkB Y816) [5]: activates the TrkB receptor in primary neurons | TrkB phosphorylation in the dentate gyrus (immunohistochemistry) [9]: strongly provoked TrkB phosphorylation in the dentate gyrus | neurogenesis (BrdU-positive cells in the dentate gyrus) [10]: significantly promoted neurogenesis compared to vehicle | immobility in FST [11]: strongest effect | immobility in TST [12]: substantially decreased the immobility

half-life [13, 17]: 2.47 h | earliest observation in brain [13, 18]: 3 min
Molecule: COc1c(O)ccc2c(=O)cc(-c3ccccc3)oc12 [8-methoxy-metabolite, 7-hydroxy-8-methoxyflavone]

Comment (Caco-2 permeability) [1]: poor recovery A to B | Papp A→B at 2 h, 10 μmol/l [2]: 1.5 ×10⁻⁶ cm/s | Papp B→A at 2 h, 10 μmol/l [2]: 1.7 ×10⁻⁶ cm/s | efflux ratio at 2 h, 10 μmol/l [2]: 1.2 | brain concentration of parent compound relative to methylated metabolite ([13]; brain, mice, after 7,8-DHF p.o. 50 mg/kg): approximately 30 fold | Cmax ([13]; male, CD-1, mouse, brain, po, 50 mg/kg): 70 ng/mL | AUC(0-inf) [13, 19]: 125 ng·h/mL | AUC(0-t) [13, 19]: 108 ng·h/mL | Cmax [13, 19]: 70 ng/mL | Tmax [13, 19]: 0.167 h | half-life [13, 17]: ~2.23 h | brain concentration at 6 h [13, 18]: below the quantitative limit | penetration of the brain-blood barrier ([13]; mice, oral dosing of 50 mg/kg 7,8-DHF): can penetrate the brain-blood barrier
Molecule: O=c1cc(-c2ccccc2)oc2c(O)c(O)ccc12 [7,8-DHF, 7,8-Dihydroxyflavone]
TrkB activation in mouse brain (p-TrkB Y816) [4]: clearly activated the TrkB receptor compared to vehicle control; also recorded: obviously activated TrkB compared to vehicle control | toxicity [14]: reveals no demonstrable toxicity | neurogenesis in the dentate gyrus [15]: enhances neurogenesis in the dentate gyrus | TrkB activation in mouse brain [6]: evidently activates the TrkB receptor in mouse brain | p-Akt versus control in entacapone-treated and tolcapone-treated groups (ELISA) [7]: no significant changes | concentration at which TrkB phosphorylation was prominent [16]: 100 nmol/L | latency of immobility ([8]; acute injection): has no effect on the latency of immobility | immobility in FST ([8]; chronic treatment): robustly decreased the immobility in FST after chronic treatment | immobility in FST ([8]; subchronic intraperitoneal injection): significantly decreases immobility in FST

concentration eliciting TrkB activation ([5]; titration assay in primary neurons): 1 to 30 nmol/L
B1: BDNF: Brain-derived neurotrophic factor, member of the neurotrophin family; positive control from Roche (protein, UniProt P23560 19-247, looked up)
Neurotrophic factor BDNF …: APMKEANIRGQGGLAYPGVRTHGTLESVNGPKAGSRGLTSLADTFEHVIEELLDEDQKVRPNEENNKDADLYTSRVMLSSQVPLEPPLLFLLEEYKNYLDAANMSMRVRRHSDPARRGELSVCDSISEWVTAADKKTAVDMSGGTVTVLEKVPVSKGQLKQYFYETKCNPMGYTKEGCRGIDKRHWNSQCRTTQSYVRALTMDSKKRIGWRFIRIDTSCVCTLTIKRGR
